Laboratory results: patent publication US20050119321A1, “2-substituted-1,3-thiazole compounds” (priority 2002, published 2005)

With `COc1ccc(CCC(=O)Nc2ncc([N+](=O)[O-])s2)cc1` [Example 5, 3-(4-Methoxyphenyl)-N-(5-nitro-1,3-thiazol-2-yl)propanamide] the melting point was 224 to 227 °C (dec.).
With `COc1ccc(CCCC(=O)Nc2ncc([N+](=O)[O-])s2)cc1` [Example 6, 4-(4-Methoxyphenyl)-N-(5-nitro-1,3-thiazol-2-yl)butanamide] the melting point was 176 to 177 °C.
For `COc1ccc(Nc2nc(N)c(C(C)=O)s2)cc1` [Example 3, 1-{4-Amino-2-[(4-methoxyphenyl)amino]-1,3-thiazol-5-yl}ethanone], the melting point was 180 °C (dec.).
